{
  "source": "patent US9920010B2",
  "about": "“CXCR7 receptor modulators” (IDORSIA PHARMACEUTICALS LTD, priority 2013, dated 2018)",
  "data": [
    {"biological_target": "T1, CXCR7 (Homo sapiens, UniProt P25106)", "T1 construct": "host or cells: CHO-K1 (PathHunter CHO-K1 CXCR7 b-arrestin cell line, stably transfected)", "T1 sequence (P25106 whole entry, the tested form may be a part)": "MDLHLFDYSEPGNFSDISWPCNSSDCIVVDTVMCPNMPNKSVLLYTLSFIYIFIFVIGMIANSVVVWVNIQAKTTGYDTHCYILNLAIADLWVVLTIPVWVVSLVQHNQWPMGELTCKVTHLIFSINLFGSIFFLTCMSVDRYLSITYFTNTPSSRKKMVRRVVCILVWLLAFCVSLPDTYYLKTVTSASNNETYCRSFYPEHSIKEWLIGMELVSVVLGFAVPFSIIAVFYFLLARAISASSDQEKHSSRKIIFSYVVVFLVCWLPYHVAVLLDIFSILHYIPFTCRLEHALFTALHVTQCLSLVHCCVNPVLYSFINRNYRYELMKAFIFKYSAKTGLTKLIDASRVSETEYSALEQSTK", "T1 sequence (P32121 whole entry partner, the tested form may be a part)": "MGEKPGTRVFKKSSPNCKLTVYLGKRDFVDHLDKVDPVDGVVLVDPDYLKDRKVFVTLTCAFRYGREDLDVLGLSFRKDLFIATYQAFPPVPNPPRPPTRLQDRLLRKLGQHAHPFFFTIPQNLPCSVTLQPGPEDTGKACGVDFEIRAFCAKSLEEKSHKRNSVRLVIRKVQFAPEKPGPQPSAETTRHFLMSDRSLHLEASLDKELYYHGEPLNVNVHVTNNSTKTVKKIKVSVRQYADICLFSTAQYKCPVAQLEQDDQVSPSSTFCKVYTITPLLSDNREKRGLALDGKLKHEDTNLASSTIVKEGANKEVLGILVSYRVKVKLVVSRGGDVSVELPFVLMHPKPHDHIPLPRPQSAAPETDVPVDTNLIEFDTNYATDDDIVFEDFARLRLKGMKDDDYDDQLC", "test": "PathHunter CHO-K1 CXCR7 b-arrestin recruitment assay (CXCR7 agonistic activity)", "format": "cell-based", "settings": "PathHunter CHO-K1 CXCR7 b-arrestin cell line", "how_it_was_run": "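Stable CHO-K1 line with C-terminally ProLink-tagged CXCR7 and β-arrestin 2–EA fusion; β-arrestin recruitment restores β-gal activity, read by chemiluminescence after 1 h RT detection. Cells seeded 24 h, starved in OPTIMEM 3–4 h, exposed to compounds 90 min at 37 °C in HBSS/HEPES/BSA. Geometric-mean EC50 from repeated measurements.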", "units": {"EC50": "nM"}, "values": [
      {"compound": "O=C(CNc1cccc2c1CCN(CC1CC1)C2)N(Cc1ccccc1C(F)(F)F)C1CCNCC1", "note": "[compound 440, 2-(2-Cyclopropylmethyl-1,2,3,4-tetrahydro-isoquinolin-5-ylamino)-N-piperidin-4-yl-N-(2-trifluoromethyl-benzyl)-acetamide]", "EC50": 15},
      {"compound": "CNCCN(Cc1ccccc1C(F)(F)F)C(=O)CNc1cccc2c1CCN(C(C)=O)C2", "note": "[compound 445, 2-(2-Acetyl-1,2,3,4-tetrahydro-isoquinolin-5-ylamino)-N-(2-methylamino-ethyl)-N-(2-trifluoromethyl-benzyl)-acetamide]", "EC50": 11},
      {"compound": "Cc1ccc(CN(CCN(C)C)C(=O)CNc2cccc3c2CCN(CC2CC2)C3)nc1", "note": "[Example 258, 2-(2-Cyclopropylmethyl-1,2,3,4-tetrahydro-isoquinolin-5-ylamino)-N-(2-dimethylamino-ethyl)-N-(5-methyl-pyridin-2-ylmethyl)-acetamide]", "EC50": 27},
      {"compound": "CCN1CCc2cccc(NCC(=O)N(CCN(C)C)Cc3ncccc3F)c2C1", "note": "[compound 528, N-(2-Dimethylamino-ethyl)-2-(2-ethyl-1,2,3,4-tetrahydro-isoquinolin-8-ylamino)-N-(3-fluoro-pyridin-2-ylmethyl)-acetamide]", "EC50": 42},
      {"compound": "CC(C)(O)CN(Cc1ncccc1Br)C(=O)CNc1cccc2c1CN(C(=O)[C@H]1C[C@H]1F)CC2", "note": "(relative stereo) [compound 461]", "EC50": 420},
      {"compound": "CN(C)CCN(Cc1ccccc1)C(=O)CNc1cccc2c1CCN(C)C2", "note": "[compound 106]", "EC50": 100},
      {"compound": "CN1CCCC1CCN(CCc1ccccc1)C(=O)CNc1cccc2c1CCN(CC1CC1)C2", "note": "(racemic) [Example 49, rac-2-(2-Cyclopropylmethyl-1,2,3,4-tetrahydro-isoquinolin-5-ylamino)-N-[2-(1-methyl-pyrrolidin-2-yl)-ethyl]-N-phenethyl-acetamide]", "EC50": 16},
      {"compound": "Cc1cc(CN(CCN(C)C)C(=O)CNc2cccc3c2CCN(CC2CC2)C3)no1", "note": "[Example 269, 2-(2-Cyclopropylmethyl-1,2,3,4-tetrahydro-isoquinolin-5-ylamino)-N-(2-dimethylamino-ethyl)-N-(5-methyl-isoxazol-3-ylmethyl)-acetamide]", "EC50": 54},
      {"compound": "CCC(C)N1CCc2c(cccc2NCC(=O)N(CCN(C)C)Cc2ccccc2C(F)(F)F)C1", "note": "(racemic) [Example 356, rac-2-(2-sec-Butyl-1,2,3,4-tetrahydro-isoquinolin-5-ylamino)-N-(2-dimethylamino-ethyl)-N-(2-trifluoromethyl-benzyl)-acetamide]", "EC50": 6},
      {"compound": "CCN(CC)CCN(Cc1ccccc1C(F)(F)F)C(=O)CNc1cccc2c1CCN(CC1CC1)C2", "note": "[Example 60, 2-(2-Cyclopropylmethyl-1,2,3,4-tetrahydro-isoquinolin-5-ylamino)-N-(2-diethylamino-ethyl)-N-(2-trifluoromethyl-benzyl)-acetamide]", "EC50": 1},
      {"compound": "CN(C)CCN(Cc1ccccc1C(F)(F)F)C(=O)CNc1cccc2c1CCN(CC#N)C2", "note": "[Example 364, 2-(2-Cyanomethyl-1,2,3,4-tetrahydro-isoquinolin-5-ylamino)-N-(2-dimethylamino-ethyl)-N-(2-trifluoromethyl-benzyl)-acetamide]", "EC50": 44},
      {"compound": "CC(C)N(C)CCN(Cc1ccccc1C(F)(F)F)C(=O)CNc1cccc2c1CCN(CC1CC1)C2", "note": "[compound 449, 2-(2-Cyclopropylmethyl-1,2,3,4-tetrahydro-isoquinolin-5-ylamino)-N-[2-(isopropyl-methyl-amino)-ethyl]-N-(2-trifluoromethyl-benzyl)-acetamide]", "EC50": 1},
      {"compound": "CCN1Cc2cccc(NCC(=O)N(CCN(C)C)Cc3ncccc3C(F)(F)F)c2CC1=O", "note": "[Example 310, N-(2-Dimethylamino-ethyl)-2-(2-ethyl-3-oxo-1,2,3,4-tetrahydro-isoquinolin-5-ylamino)-N-(3-trifluoromethyl-pyridin-2-ylmethyl)-acetamide]", "EC50": 78},
      {"compound": "CN(C)CCN(Cc1cnc(N(C)C)nc1)C(=O)CNc1cccc2c1CCN(CC1CC1)C2", "note": "[Example 272, 2-(2-Cyclopropylmethyl-1,2,3,4-tetrahydro-isoquinolin-5-ylamino)-N-(2-dimethylamino-ethyl)-N-(2-dimethylamino-pyrimidin-5-ylmethyl)-acetamide]", "EC50": 230},
      {"compound": "CCN1CCc2cccc(NCC(=O)N(CCC#N)Cc3ccccc3C(F)(F)F)c2C1", "note": "[compound 516]", "EC50": 181},
      {"compound": "CCN1CCc2cccc(NCC(=O)N(CCN(C)C)Cc3ccccn3)c2C1", "note": "[compound 540]", "EC50": 220},
      {"compound": "CNCCN(Cc1ccccc1C(F)(F)F)C(=O)CNc1cccc2c1CCN(C(=O)OCCF)C2", "note": "[compound 400, 5-({[(2-Methylamino-ethyl)-(2-trifluoromethyl-benzyl)-carbamoyl]-methyl}-amino)-3,4-dihydro-1H-isoquinoline-2-carboxylic acid 2-fluoro-ethyl ester]", "EC50": 31},
      {"compound": "CCN1CCc2c(/C=C/C(=O)N(CCN(C)C)Cc3ccccc3Cl)cccc2C1", "note": "[compound 145, (E)-N-(2-Chloro-benzyl)-N-(2-dimethylamino-ethyl)-3-(2-ethyl-1,2,3,4-tetrahydro-isoquinolin-5-yl)-acrylamide]", "EC50": 8},
      {"compound": "CCC(=O)N1CCc2cccc(OCC(=O)N(CCN(C)C)Cc3ccccc3)c2C1", "note": "[Example 206, N-Benzyl-N-(2-dimethylamino-ethyl)-2-(2-propionyl-1,2,3,4-tetrahydro-isoquinolin-8-yloxy)-acetamide]", "EC50": 26},
      {"compound": "CCC(=O)N1CCc2c(cccc2NCC(=O)N(CCN2CCCC2)Cc2ccccc2)C1", "note": "[Example 24, N-Benzyl-2-(2-propionyl-1,2,3,4-tetrahydro-isoquinolin-5-ylamino)-N-(2-pyrrolidin-1-yl-ethyl)-acetamide]", "EC50": 28},
      {"compound": "CN(C)CCN(Cc1ccccc1)C(=O)COc1cccc2c1CN(C(=O)c1ccccc1)CC2", "note": "[Example 207, 2-(2-Benzoyl-1,2,3,4-tetrahydro-isoquinolin-8-yloxy)-N-benzyl-N-(2-dimethylamino-ethyl)-acetamide]", "EC50": 5},
      {"compound": "2-(2-Cyclopropylmethyl-1,2,3,4-tetrahydro-isoquinolin-5-ylamino)-N-(2-dimethylamino-ethyl)-N-pyridin-3-ylmethyl-acetamide [Example 263]", "EC50": 127},
      {"compound": "CNCCN(Cc1ncccc1C(F)(F)F)C(=O)CNc1cccc2c1CCN(C(=O)OC)C2", "note": "[compound 419, 5-({[(2-Methylamino-ethyl)-(3-trifluoromethyl-pyridin-2-ylmethyl)-carbamoyl]-methyl}-amino)-3,4-dihydro-1H-isoquinoline-2-carboxylic acid methyl ester]", "EC50": 6},
      {"compound": "CN(C)CCN(Cc1ccccc1)C(=O)CNc1cccc2c1CCN(CC(F)(F)F)C2", "note": "[Example 85, N-Benzyl-N-(2-dimethylamino-ethyl)-2-[2-(2,2,2-trifluoro-ethyl)-1,2,3,4-tetrahydro-isoquinolin-5-ylamino]-acetamide]", "EC50": 187},
      {"compound": "CCC(=O)N1CCc2c(cccc2NCC(=O)N(CCN(C)C)Cc2ccccc2C(F)(F)F)C1", "note": "[Example 35, N-(2-Dimethylamino-ethyl)-2-(2-propionyl-1,2,3,4-tetrahydro-isoquinolin-5-ylamino)-N-(2-trifluoromethyl-benzyl)-acetamide]", "EC50": 4}
    ]}
  ]
}
